# “Also recorded” adds a separate entry of the source. Read-outs that look alike come from different tables or passages of the source.
# Assays:
# Format in all cases: cell-based
# [1] = test system: HCT-15 (human colon adenocarcinoma); assay: SRB cytotoxicity assay, HCT-15 cells
# Description: (§1) The cytotoxicity of all compounds was assessed against several cancer cell lines, namely U251 (human glioblastoma), PC-3 (human prostate adenocarcinoma), K562 (human chronic myelogenous leukemia), HCT-15 (human colon adenocarcinoma), MCF-7 (human mammary adenocarcinoma), SKLU-1 (human lung adenocarcinoma), and COS-7 (non-tumoral monkey kidney). These cell lines were obtained from the U.S. National Cancer Institute (NCI) (Montgomery County, MD, USA). The cells were cultured in RPMI-1640 medium supplemented with 10% fetal bovine serum, 2 mM L-glutamine, 10,000 units/mL penicillin G sodium, 10,000 μg/mL streptomycin sulfate, 25 μg/mL amphotericin B (Invitrogen/Gibco^TM, Thermo Fisher Scientific, Waltham, MA, USA), and 1% non-essential amino acids (Gibco). They were maintained at a temperature of 37 °C in a humidified atmosphere containing 5% CO2. The experiment’s cell viability exceeded 95%, as determined using trypan blue staining. To evaluate the cytotoxicity on human tumor cells, the protein-binding dye sulforhodamine B (SRB) was employed in a microculture assay, following the protocols established by the NCI [52, 53, 54]. The results were reported as IC50 values, representing the inhibitory concentration required for 50% inhibition. The IC50 values were determined using the Monks protocol, which involved plotting dose-response curves for each compound and estimating the concentration (IC50) at which a 50% inhibition was observed through non-linear regression analysis.
# [2] = test system: U251 (human glioblastoma); assay: SRB cytotoxicity assay, U251 cells
# Description: as §1
# [3] = test system: PC-3 (human prostate adenocarcinoma); assay: SRB cytotoxicity assay, PC-3 cells
# Description: as §1
# [4] = test system: K562 (human chronic myelogenous leukemia); assay: SRB cytotoxicity assay, K562 cells
# Description: as §1
# [5] = test system: MCF-7 (human mammary adenocarcinoma); assay: SRB cytotoxicity assay, MCF-7 cells
# Description: as §1
# [6] = test system: COS-7 (non-tumoral monkey kidney); assay: SRB cytotoxicity assay, COS-7 non-tumoral cells
# Description: as §1
# [7] = test system: SKLU-1 (human lung adenocarcinoma); assay: SRB cytotoxicity assay, SKLU-1 cells
# Description: as §1
# [8] = HCT15 cell line, SRB assay, read-out: IC50 HCT15
# [9] = U251 cell line, SRB assay, read-out: IC50 U251
# [10] = PC-3 cell line, SRB assay, read-out: IC50 PC-3
# [11] = K562 cell line, SRB assay, read-out: IC50 K562
# [12] = MCF7 cell line, SRB assay, read-out: IC50 MCF7
# [13] = non-cancerous COS-7 cells, SRB assay, read-out: IC50 COS-7
# [14] = SKLU-1 cell line, SRB assay, read-out: IC50 SKLU-1
Molecule,"IC50 [1, 8] [µM]","IC50 [2, 9] [µM]","IC50 [3, 10] [µM]","IC50 [4, 11] [µM]","IC50 [5, 12] [µM]","IC50 [6, 13] [µM]","IC50 [7, 14] [µM]",also measured
"N.N.[Cl][Pt][Cl] [Cisplatin, reference compound]",10 ± 0.9,–,–,–,–,–,–,–
Dimethoxycurcumin gallium [(DiMeOC)2-Ga],–,5.3 ± 0.1,10.5 ± 0.3,2 ± 0.2,15.5 ± 0.4,23.2 ± 1.9,–,"Selectivity: IC50 in COS-7 compared to U251 ([2]; COS-7 vs U251, times less cytotoxic): 4 times; Selectivity: IC50 in COS-7 compared to PC-3 ([3]; COS-7 vs PC-3, times less cytotoxic): 2 times; Selectivity: IC50 in COS-7 compared to K562 ([4]; COS-7 vs K562, times less cytotoxic): 11 times; Toxicity relative to cisplatin ([6]; lower toxicity than cisplatin (non-cancerous COS-7)): three times lesser toxicity than cisplatin; also recorded: up to three times lower toxicity than cisplatin"
"COc1ccc(/C=C/C(=O)/C=C(O)/C=C/c2ccc(OC)c(OC)c2)cc1OC [DiMeOC, Dimethoxycurcumin]",–,–,–,–,–,–,–,"IC50 ([2]; Homo sapiens, U-251, read-out: IC50 U251): 2.02 ± 0.07 µM; IC50 ([3]; Homo sapiens, PC-3, read-out: IC50 PC-3): 5.9 ± 0.6 µM; IC50 ([7]; Homo sapiens, SK-LU-1, read-out: IC50 SKLU-1): 7.2 ± 0.4 µM; IC50 ([4]; Homo sapiens, K562, read-out: IC50 K562): 6.5 ± 1.4 µM; IC50 ([5]; Homo sapiens, MCF7, read-out: IC50 MCF7): 6.9 ± 1 µM; IC50 ([6]; Primates, COS-7, read-out: IC50 COS-7): 2.02 ± 0.07 µM; IC50 ([1]; Homo sapiens, HCT-15, read-out: IC50 HCT15): 6.6 ± 0.3 µM"
Dimethoxycurcumin indium [(DiMeOC)3-In],7.9 ± 0.2,6.3 ± 0.6,7.6 ± 0.05,–,9.7 ± 0.4,–,6.2 ± 0.4,–
Curcumin [reference compound],21.3 ± 0.9,20.5 ± 1.7,22.5 ± 1.9,16.4 ± 0.04,18.4 ± 0.9,21.8 ± 2.1,12.9 ± 0.7,–

# Source: PMC10671313, “First Gallium and Indium Crystal Structures of Curcuminoid Homoleptic Complexes: All-Different Ligand Stereochemistry and Cytotoxic Potential” (International Journal of Molecular Sciences, 2023)
